Measurements reported in patent publication US10800790B2, “Sesquiterpenoid STAT3 inhibitors” (University of Hawaii, priority 2013, dated 2020).

How the values were obtained:
[1] = test system: U251 MG cells; experiment: iTRAQ proteomics with immunoblot validation, U251 MG cells; format: cell-based, human
Protocol: To investigate the possibility that the hirsutinolides could induce global molecular changes in the sensitive malignant cells, lysates were prepared from U251 MG cells untreated or treated with 6 or 22 for 1 h and analyzed by isobaric peptide labeling and nanoLC-MS/MS analysis (iTRAQ) proteomics method (Ross, P. L., et al., Multiplexed protein quantitation in Saccharomyces cerevisiae using amine-reactive isobaric tagging reagents, Mol Cell Proteomics., 2004. 3: p. 1154-69), as described in the Examples section. A search was pursed of the 341,908 mass spectrometry spectra using ProteinPilot (version 4.5; Applied Biosystems) against the National Center for Biotechnology Information non-redundant reference sequence (NCBInr) human database and based on the criteria of choosing only proteins with at least 95% confidence and with a “Local False Discovery Rate” no higher than 5%, as calculated from the slope of the accumulated Decoy database hits by the PSPEP estimation. […]
Cellular samples were prepared according to the Pennsylvania STATe University College of Medicine Mass Spectrometry and Proteomics Core (MSPC) facility (Hershey, Pa.) standard protocol, adapted from the manufacturer's instructions (Applied Biosystems Sciex, Foster City, Calif.), combined with filter-aided sample preparation, as previously reported. […] For iTRAQ analysis (Ross, P. L., et al., Multiplexed protein quantitation in Saccharomyces cerevisiae using amine-reactive isobaric tagging reagents, Mol Cell Proteomics., 2004, 3: p. 1154-69), one hundred micrograms of whole-cell lysates from U251 MG cells untreated (DMSO control) or treated with 5 micromolar of compounds 22 or 6 for 1 h were independently digested, and their corresponding cellular proteins were differently labeled with 114, 115 or 117 tags, respectively, using iTRAQ reagents. […] Protein identification and quantification for iTRAQ samples were carried out using ProteinPilot™ software (version 4.5; Applied Biosystems, MDS-Sciex, Framingham, Mass.). […]

[2] = target: T1, STAT3 (NIH3T3/v-Src nuclear extracts) (Mus musculus, UniProt P42227); experiment: In vitro STAT3 DNA-binding activity/EMSA, nuclear extracts incubated with compound; format: biochemical; conditions: 5 micromolar, 30 min at room temperature
T1 construct: nuclear extracts prepared from v-Src-transformed mouse fibroblasts (NIH3T3/v-Src) containing active STAT3; endogenous in cells; host or cells: NIH3T3/v-Src mouse fibroblasts (nuclear extract)
Protocol: To further determine the effects of the bioactive agents on STAT3 activity, nuclear extracts prepared from v-Src-transformed mouse fibroblasts (NIH3T3/v-Src) containing active STAT3 were directly incubated with 5 micromolar compounds for 30 min at room temperature prior to performing STAT3 DNA-binding activity in vitro with EMSA analysis. […] These studies indicate that agents directly interact with STAT3 and disrupt STAT3:STAT3 dimers, thereby inhibiting its DNA-binding activity.
Data are representative of 2-3 independent determinations.
Nuclear extract preparations and DNA-binding/electrophoretic mobility shift assay (EMSA) were carried out as previously described (Xu, supra). Nuclear extract preparations and DNA-binding activity/electrophoretic mobility shift assay (EMSA) were carried out as previously described. U251 MG and MDA-MB-231 cells culture were pretreated with different concentrations of the compounds for the indicated period and then harvested for nuclear extract preparation and DNA-binding assay with EMSA analysis. The ^32P-labeled oligonucleotide probe used was hSIE (high-affinity sis-inducible element) from the c-fos gene, m67 variant (5′-[…]-3′) that binds STAT3. Except where indicated, nuclear extracts were pre-incubated with compound for 30 min at room temperature prior to incubation with the radiolabeled probe for 30 min at 30° C. before subjecting to EMSA analysis. Where appropriate, bands corresponding to DNA-binding activities were scanned and quantified for each concentration of compound using ImageJ and plotted as percent of control (vehicle) against concentration of compound, from which the IC50 values were derived.

T1 sequence (P42227 whole entry): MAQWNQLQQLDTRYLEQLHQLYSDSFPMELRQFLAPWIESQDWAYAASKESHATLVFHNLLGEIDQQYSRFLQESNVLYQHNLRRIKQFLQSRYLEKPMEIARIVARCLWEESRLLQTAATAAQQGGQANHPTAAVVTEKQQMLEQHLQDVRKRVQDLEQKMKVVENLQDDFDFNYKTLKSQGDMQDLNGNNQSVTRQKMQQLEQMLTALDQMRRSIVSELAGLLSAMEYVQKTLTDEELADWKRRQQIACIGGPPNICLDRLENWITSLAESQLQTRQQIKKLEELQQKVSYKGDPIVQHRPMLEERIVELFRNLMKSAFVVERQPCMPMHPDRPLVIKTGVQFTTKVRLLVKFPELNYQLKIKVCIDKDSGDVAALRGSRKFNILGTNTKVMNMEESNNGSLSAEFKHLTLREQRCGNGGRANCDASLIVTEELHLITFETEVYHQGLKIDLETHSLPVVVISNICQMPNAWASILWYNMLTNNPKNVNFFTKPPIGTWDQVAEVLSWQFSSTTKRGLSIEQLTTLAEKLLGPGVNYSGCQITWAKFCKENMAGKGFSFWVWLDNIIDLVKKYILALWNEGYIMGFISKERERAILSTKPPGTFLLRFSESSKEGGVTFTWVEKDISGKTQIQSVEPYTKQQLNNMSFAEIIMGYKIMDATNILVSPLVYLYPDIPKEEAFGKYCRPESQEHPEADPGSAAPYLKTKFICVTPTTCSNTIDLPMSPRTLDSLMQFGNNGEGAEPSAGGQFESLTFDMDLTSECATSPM

- Inhibition of STAT3 DNA-binding activity in vitro (EMSA) [2]: strong inhibition
Substance: (4S,6R,E)-4,7-dihydroxy-6,10-dimethyl-2-oxo-2,4,5,6,7,8,9,10-octahydro-7,10-epoxycyclodeca[b]furan-3-yl)methyl(E)-2-methylbut-2-enoate [Compound 22]
- Expression of GCN1 (immunoblot) ([1]; U251MG): reduced expression
- Importin subunit α-2 up ([1]; iTRAQ, 5 micromolar, 1 h): 2 fold
- MAP1B down ([1]; iTRAQ, 5 micromolar, 1 h): ~2 fold
